The text below walks through data of PMC2574903 (Biochimica et biophysica acta, 2008).

Series [1] addresses T1, CES1 (Homo sapiens, UniProt P23141).
T1 sequence (P23141 18-567): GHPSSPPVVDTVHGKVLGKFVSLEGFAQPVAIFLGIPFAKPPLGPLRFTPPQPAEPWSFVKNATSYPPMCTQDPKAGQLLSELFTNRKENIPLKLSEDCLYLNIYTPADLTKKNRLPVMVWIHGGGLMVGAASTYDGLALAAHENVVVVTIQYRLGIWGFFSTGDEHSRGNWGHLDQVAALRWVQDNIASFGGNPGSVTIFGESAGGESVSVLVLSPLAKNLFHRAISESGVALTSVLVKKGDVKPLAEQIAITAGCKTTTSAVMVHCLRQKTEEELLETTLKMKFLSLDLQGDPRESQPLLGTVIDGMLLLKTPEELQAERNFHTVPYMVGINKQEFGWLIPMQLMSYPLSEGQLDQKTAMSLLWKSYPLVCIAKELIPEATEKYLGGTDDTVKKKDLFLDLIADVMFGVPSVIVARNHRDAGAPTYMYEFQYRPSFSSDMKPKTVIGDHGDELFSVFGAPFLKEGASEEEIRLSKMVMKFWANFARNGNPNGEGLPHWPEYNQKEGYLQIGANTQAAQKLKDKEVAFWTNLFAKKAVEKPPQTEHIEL
The series is described as follows: Hydrolysis of 4-methylumbelliferyl oleate. The format is biochemical.

Series [2] concerns the target T2, carboxylesterase activity in THP-1 macrophages (Homo sapiens, UniProt P23141).
T2 sequence (P23141 18-567): T1 sequence (P23141 18-567)
The series is classed as cell-based.

The subject of series [3] is intracellular carboxylesterase activity in U373MG cells. The settings on record: cited from earlier work.
In the next series the test system is THP-1 macrophages. The series is described as follows: Cholesteryl ester retention in cholesterol-loaded THP-1 macrophages. The format is cell-based, human. The settings on record: for Total cellular cholesterol content of macrophages / Free cholesterol levels: 50 μM benzil or 10 μM paraoxon, 48-h efflux period; for Free cholesterol levels: vs vehicle.
In the next series the target is T3, porcine pancreatic CEL (Sus scrofa, UniProt A0A286ZKB1).
T3 sequence (A0A286ZKB1 1-682): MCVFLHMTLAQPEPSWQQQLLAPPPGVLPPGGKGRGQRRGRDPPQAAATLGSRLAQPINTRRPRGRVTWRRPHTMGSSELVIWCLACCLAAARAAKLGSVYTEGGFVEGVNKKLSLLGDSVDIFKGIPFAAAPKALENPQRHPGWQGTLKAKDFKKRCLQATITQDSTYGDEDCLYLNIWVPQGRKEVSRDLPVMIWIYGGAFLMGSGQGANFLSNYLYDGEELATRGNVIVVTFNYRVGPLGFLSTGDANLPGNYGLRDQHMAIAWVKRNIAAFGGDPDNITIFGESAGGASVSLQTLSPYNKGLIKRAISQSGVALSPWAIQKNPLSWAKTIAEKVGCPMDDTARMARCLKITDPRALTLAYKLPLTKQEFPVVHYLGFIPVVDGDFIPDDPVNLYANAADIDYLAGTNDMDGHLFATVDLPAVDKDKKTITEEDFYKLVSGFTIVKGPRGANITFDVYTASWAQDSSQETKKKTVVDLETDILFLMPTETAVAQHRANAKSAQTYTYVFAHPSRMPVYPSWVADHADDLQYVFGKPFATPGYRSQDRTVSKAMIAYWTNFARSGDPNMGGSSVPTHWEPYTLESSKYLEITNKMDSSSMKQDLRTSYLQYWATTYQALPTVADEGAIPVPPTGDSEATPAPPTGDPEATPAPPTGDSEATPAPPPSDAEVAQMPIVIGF
The series is described as follows: Hydrolysis of 4-MUBO by porcine bile-salt stimulated cholesterol esterase. Particulars: 4-MUBO substrate; no bile salts added; Supplementary Fig. 1. The format is biochemical.

Series [4] has as its target T4, carboxylesterase activity of human THP-1 cell lysates (CES1) (Homo sapiens, UniProt P23141).
T4 sequence (P23141 18-567): T1 sequence (P23141 18-567)
The format is biochemical. Particulars: para-nitrophenyl valerate.

The target of series [5] is T5, carboxylesterase activity (CES1) in intact THP-1 cells (Homo sapiens, UniProt P23141).
T5 sequence (P23141 18-567): T1 sequence (P23141 18-567)
The series is described as follows: Carboxylesterase activity after 24-h treatment of intact THP-1 monocytes. Particulars: for Inhibition of carboxylesterase activity in intact THP-1 monocytes: 24 h treatment of intact cells, activity measured in lysates; for Relative effectiveness at inhibiting carboxylesterase activity in intact cells: 24 h treatment, comparison of the three oxons. The format is cell-based.

The subject of another series is THP-1 cells. The series can be described thus: Cell viability by Trypan Blue exclusion after oxon exposure. The series is classed as cell-based, human. Particulars: 24 h, concentrations of oxon used, data not shown.
For series [6] the following is noted: cited from earlier work.
The next series relates to CES1 protein expression. The series is described as follows: Western blot of CES1 protein in paraoxon-treated THP-1 cells. The series is classed as cell-based, human. The settings on record: 10 μM paraoxon 24 h.
Series [7] relates to lipolytic activity of THP-1 cell lysates. The series is described as follows: Hydrolysis of 4-MUBO by THP-1 cell lysates. The series is classed as biochemical, human. The settings on record: paraoxon up to 10 μM; Supplementary Fig. 2.
The target in series [8] is T1, CES1. The series is classed as binding.
For series [9], the system named is cholesteryl ester hydrolase activity in human THP1 cell lysate. The series is described as follows: Hydrolysis of cholesteryl [1-14C]oleate. The format is biochemical. The settings on record: 10 μM paraoxon for 10 min before 75 μM cholesteryl [1-14C]oleate.

Structures are written as SMILES. Read-outs that look alike come from different tables or passages of the source.

In the case of `O=C(C(=O)c1ccccc1)c1ccccc1` [Benzil, diphenylethane-1,2-dione], on CES1 [1], the “Inhibition of lipase activity of CES1” value is reported as “can be inhibited”. Besides, the “Carboxylesterase activity in cell lysate from treated macrophages” value in [2] is listed as “not significantly inhibited”. For the same compound, the “Inhibition of intracellular carboxylesterase activity” value in series [3] (U373MG cells transfected with plasmids containing mammalian CES cDNA) was “effective inhibitor”. In series [3] (U373MG cells), the Cell permeability result is “cell-permeable” and the Cytotoxicity result is recorded as “non-cytotoxic”. Moreover, the “Increase in intracellular cholesteryl ester levels” value in the series on THP-1 macrophages (50 μM benzil during 48-h cholesterol efflux period) is listed as over 3 fold. Also, in the series on THP-1 macrophages, the “Total cellular cholesterol content of macrophages” value is recorded as “did not significantly change” and the Free cholesterol levels result was “similar”. The “Inhibition of CEL” value on porcine pancreatic CEL is “does not inhibit”.

Take `CCOP(=O)(OCC)Oc1nc(Cl)c(Cl)cc1Cl` [Chlorpyrifos oxon]: in series [4], the “Inhibition of carboxylesterase activity in cell lysates” value (“Inhibition … in cell lysates” for short) is on record as “inhibited carboxylesterase activity in cell lysates in a concentration-dependent manner”. For the same compound, in series [5], the “Inhibition of carboxylesterase activity in intact THP-1 monocytes” value (shortened to “Inhibition … in intact THP-1 monocytes”) is reported as “inhibited by each oxon in a dose-dependent manner” and the “Relative effectiveness at inhibiting carboxylesterase activity in intact cells” value was “least effective”. Moreover, in the series with THP-1 cells, the Overall cell viability entry is reported as “did not affect overall cell viability”. In addition, the “Lipophilicity rank among the three oxons” value in [6] is on record as “most lipophilic”.

Turning to `COP(=O)(OC)Oc1ccc([N+](=O)[O-])cc1` [Methyl paraoxon], the “Inhibition … in cell lysates” value in series [4] is “inhibited carboxylesterase activity in cell lysates in a concentration-dependent manner”. Moreover, the “Inhibition … in intact THP-1 monocytes” value in series [5] is reported as “inhibited by each oxon in a dose-dependent manner”. Besides, the Overall cell viability entry with THP-1 cells was “did not affect overall cell viability”. Besides, the “Lipophilicity rank among the three oxons” value in series [6] is reported as “least lipophilic”.

In the case of `CCOP(=O)(OCC)Oc1ccc([N+](=O)[O-])cc1` [Paraoxon], on CES1 [1] (4-MUBO substrate, Supplementary Fig. 1), the “Inhibition of lipase activity of CES1” value is on record as “can be inhibited”. Also, in the series on CES1 protein expression, the “Amount of CES1 protein compared to control (vehicle) treated cells” value is given as “no difference”. Moreover, the “Inhibition of lipolytic activity of THP-1 cell lysates toward 4-MUBO” value in series [7] is reported as “no significant inhibiton of lipase activity”. The “Inhibition of carboxylesterase activity in cell lysate from treated macrophages” value in series [2] (10 μM paraoxon, compared to control cells, p≤0.05) was 81%. Also, the “Inhibition … in cell lysates” value in series [4] is “inhibited carboxylesterase activity in cell lysates in a concentration-dependent manner”. Also, in series [5], the “Inhibition … in intact THP-1 monocytes” value is given as “inhibited by each oxon in a dose-dependent manner” and the “Relative effectiveness at inhibiting carboxylesterase activity in intact cells” value is recorded as “most effective”. Also, the “CES1 activity on native PAGE gels” value in series [5] (intact cells, 10 μM paraoxon 24 h, α,β-naphthyl acetate stain) was “markedly inhibited”. For the same compound, the “Paraoxon concentrations that completely inhibited FP-biotin labeling of CES1” value on CES1 [8] (lysate 1 mg/ml pre-treated 15 min at 37°C, then 2 μM FP-biotin 1 h) is reported as over 1 nM. Also, the “Effect on FP-biotin labeling of CES1” value on CES1 [8] (pre-treatment with paraoxon at 0.01 nM) is on record as “did not prevent labeling”. Also, the “Reduction of CEH activity of THP1 cell lysates” value in series [9] was determined as 23%. In addition, the Overall cell viability entry in the series on THP-1 cells was “did not affect overall cell viability”. The “Intracellular cholesteryl ester retention” value in the series on THP-1 macrophages (10 μM paraoxon during 48-h cholesterol efflux) is “significant increase”. For the same compound, in the series with THP-1 macrophages, the “Total cellular cholesterol content of macrophages” value was “did not significantly change” and the Free cholesterol levels entry was “modest but significant reduction”. Also, the “Inhibition of CEL” value on porcine pancreatic CEL was “very sensitive”.
